Publication PMC8765781, “A platform of assays for the discovery of anti-Zika small-molecules with activity in a 3D-bioprinted outer-blood-retina model” (PLoS ONE, 2022)
Read-outs that look alike come from different tables or passages of the source.

Legend:
[1] = tested on: ZIKV-RLuc (Cambodian strain FSS13025); experiment: microbe, parasite or virus in culture; format: cell-based, Zika virus
[2] = Zika virus, Vero, read-out: Log AC50 (M) (converted)

SMILES | AC50 (Vero cells) [µM] | Log AC50 (M) (Vero cells) | CC-v2 (curve class classification v2 of the dose response curve) [1] | Efficacy (difference between neutral response and maximum compound response) [1] | Max Resp (difference between neutral response and compound response for highest compound concentration) [1] | AC50 ([1]; Zika virus, Vero) [M] | AC50 [1, 2] [M] | AC50 [1] [M] | Log AC50 (M) [1]
CN1CCN(CCCN2c3ccccc3Sc3ccc(C(F)(F)F)cc32)CC1 [NCGC00013226-15] | 23.3 | -4.6327 | -2.1 | -93.82 | -95.429 | 2.33e-05 | 2.33e-05 |  | 
CC(C)(O)/C=C\C(=O)[C@](C)(O)[C@H]1[C@H](O)C[C@]2(C)[C@@H]3CC=C4[C@@H](C=C(O)C(=O)C4(C)C)[C@]3(C)C(=O)C[C@@]12C [NCGC00014911-01] | 3.29 | -5.4827 | -1.1 | -103.985 | -99.739 | 3.29e-06 | 3.29e-06 |  | 
CCCCc1oc2ccccc2c1C(=O)c1cc(I)c(OCCN(CC)CC)c(I)c1 [NCGC00015096-17] | 18.5 | -4.7327 | -2.1 | -100.133 | -98.715 | 1.85e-05 | 1.85e-05 |  | 
CNCCC(Oc1ccc(C(F)(F)F)cc1)c1ccccc1 (stereo not drawn) [NCGC00015428-15] | 16.5 | -4.7827 | -2.2 | -78.657 | -76.003 | 1.65e-05 | 1.65e-05 |  | 
OCCN1CCN(CCCN2c3ccccc3Sc3ccc(C(F)(F)F)cc32)CC1 [NCGC00015436-11] | 26.1 | -4.5827 | -3 | -75.446 | -79.581 | 2.61e-05 | 2.61e-05 |  | 
CC(C)(Sc1ccc(CCN(CCCCC2CCCCC2)C(=O)NC2CCCCC2)cc1)C(=O)O [NCGC00015480-13] | 32.9 |  | -2.2 | -93.466 | -98.662 | 3.29e-05 | 3.29e-05 |  | 
O=C(Nc1ccc([N+](=O)[O-])cc1Cl)c1cc(Cl)ccc1O [NCGC00015735-11] | 0.362 | -6.4408 | -1.1 | -106.368 | -100.429 |  |  | 3.62e-07 | -6.4408
O=C(Nc1ccc([N+](=O)[O-])cc1Cl)c1cc(Cl)ccc1O [NCGC00015735-12] | 1.04 | -5.9827 | -1.1 | -94.574 | -99.55 |  |  | 1.04e-06 | -5.9827
CCCN(CC1CC1)c1nc(C)nc(Nc2c(Cl)cc(Cl)cc2Cl)c1Cl [NCGC00015737-02] | 36.9 | -4.4327 | -3 | -116.403 | -99.557 | 3.69e-05 | 3.69e-05 |  | 
COC(=O)C1=C(C)NC(C)=C(C(=O)OCCN(C)Cc2ccccc2)C1c1cccc([N+](=O)[O-])c1 (stereo not drawn) [NCGC00015747-03] | 36.9 | -4.4327 | -3 | -68.655 | -54.296 | 3.69e-05 | 3.69e-05 |  | 
O=c1[nH]c2ccccc2n1C1CCN(CCCC(c2ccc(F)cc2)c2ccc(F)cc2)CC1 [NCGC00015802-18] | 20.8 | -4.6827 | -2.1 | -98.365 | -96.477 | 2.08e-05 | 2.08e-05 |  | 
COc1ccc(CCN(C)CCCC(C#N)(c2ccc(OC)c(OC)c2)C(C)C)cc1OC (stereo not drawn) [NCGC00016083-13] | 15.1 | -4.8199 |  |  |  | 1.51e-05 | 1.51e-05 |  | 
CC(=O)O[C@H]1C(=O)[C@@]2(C)C([C@H](OC(=O)c3ccccc3)[C@]3(O)C[C@H](OC(=O)[C@H](O)[C@@H](NC(=O)c4ccccc4)c4ccccc4)C(C)=C1C3(C)C)[C@]1(OC(C)=O)CO[C@@H]1C[C@@H]2O (stereo partly drawn) [NCGC00024995-10] | 20.8 | -4.6827 | -2.2 | -75.217 | -63.948 | 2.08e-05 | 2.08e-05 |  | 
